Laboratory results: US7910612B2, “4-oxy-N-[1,3,4]-thiadiazol-2-yl-benzene sulfonamides, pharmaceutical compositions and methods for their therapeutic use” (Sanofi-Aventis, priority 2005, dated 2011)

Molecular target: T1, human PPARgamma (Homo sapiens, UniProt P37231)
T1 construct: amino acids 1152-Y475; expressed in transfected cells; host or cells: HEK (human embryonic kidney) cells, transiently transfected with pcDNA3-GAL4-humanPPARgammaLBD
T1 sequence (P37231 182-477 isoform P37231-2 limits assumed): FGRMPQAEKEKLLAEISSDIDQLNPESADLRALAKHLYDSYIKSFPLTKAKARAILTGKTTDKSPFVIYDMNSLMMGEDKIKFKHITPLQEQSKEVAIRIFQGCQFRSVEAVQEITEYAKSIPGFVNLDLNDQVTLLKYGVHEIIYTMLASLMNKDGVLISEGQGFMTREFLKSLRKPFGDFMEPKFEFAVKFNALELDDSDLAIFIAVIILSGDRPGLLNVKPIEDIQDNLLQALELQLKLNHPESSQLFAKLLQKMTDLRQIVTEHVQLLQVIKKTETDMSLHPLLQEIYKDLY
Assay: cellular PPARgamma assay (transiently transfected HEK cells, luciferase reporter)
Format: cell-based
Source text: A transient transfection system is employed to determine the cellular PPARgamma activity of PPAR agonists. It is based on the use of a luciferase reporter plasmid (pGL3basic-5xGAL4-TK) and of a PPARgamma expression plasmid (pcDNA3-GAL4-humanPPARgammaLBD). Both plasmids are transiently transfected into human embryonic kidney cells (HEK cells). There is then expression in these cells of the fusion protein GAL4-humanPPARgammaLBD which binds to the GAL4 binding sites of the reporter plasmid. In the presence of a PPARgamma-active ligand, the activated fusion protein GAL4-humanPPARgammaLBD induces expression of the luciferase reporter gene, which can be detected in the form of a chemiluminescence signal after addition of a luciferase substrate. As a difference from the stably transfected PPARalpha reporter cell line, in the cellular PPARgamma assay the two components (luciferase reporter plasmid and PPARgamma expression plasmid) are transiently transfected into HEK cells because stable and permanent expression of the PPARgamma fusion protein is cytotoxic.
The luciferase reporter plasmid pGL3basic-5xGAL4-TK is based on the vector pGL3basic from Promega. The reporter plasmid is prepared by cloning five binding sites of the yeast transcription factor GAL4 (each binding site with the sequence 5′-CTCGGAGGACAGTACTCCG-3′), together with a 160 bp-long thymidine kinase promoter section (Genbank Accession #AF027128) 5′-upstream into pGL3basic. 3′-downstream of the thymidine kinase promoter is the complete luciferase gene from Photinus pyralis (Genbank Accession #M15077) which is already a constituent of the plasmid pGL3basic used. The cloning and sequencing of the reporter plasmid pGL3basic-5xGAL4-TK took place in analogy to the description in Sambrook J. et. al. (Molecular cloning, Cold Spring Harbor Laboratory Press, 1989).
The PPARgamma expression plasmid pcDNA3-GAL4-humanPPARgammaLBD was prepared by first cloning the cDNA coding for amino acids 1-147 of the yeast transcription factor GAL4 (Genbank Accession #P04386) into the plasmid pcDNA3 (from Invitrogen) 3′-downstream of the cytomegalovirus promoter. Subsequently, the cDNA of the ligand-binding domain (LBD) of the human PPARgamma receptor (amino acids […]; Accession #g1480099) 3′-downstream of the GAL4 DNA binding domain. Cloning and sequencing of the PPARgamma expression plasmid pcDNA3-GAL4-humanPPARgammaLBD again took place in analogy to the description in Sambrook J. et. al. (Molecular cloning, Cold Spring Harbor Laboratory Press, 1989). Besides the luciferase reporter plasmid pGL3basic-5xGAL4-TK and the PPARgamma expression plasmid pcDNA3-GAL4-humanPPARgammaLBD, also used for the cellular PPARgamma assay are the reference plasmid pRL-CMV (from Promega) and the plasmid pBluescript SK(+) from Stratagene. All four plasmids were prepared using a plasmid preparation kit from Qiagen, which ensured a plasmid quality with a minimal endotoxin content, before transfection into HEK cells.
The activity of PPARgamma agonists was then determined in a 4-day assay which is described below. Before the transfection, HEK cells are cultivated in DMEM (#41965-039, Invitrogen) which is mixed with the following additions: 10% FCS (#16000-044, Invitrogen), 1% penicillin-streptomycin solution (#15140-122, Invitrogen) and 2 mM L-glutamine (#25030-024, Invitrogen).
Firstly, solution A, a transfection mixture which contains all four plasmids previously described in addition to DMEM, is prepared. The following amounts are used to make up 3 ml of solution A for each 96 well microtiter plate for an assay: 2622 μl of antibiotic- and serum-free DMEM (#41965-039, Invitrogen), 100 μl of reference plasmid pRL-CMV (1 ng/μl), 100 μl of luciferase reporter plasmid pGL3basic-5xGAL4-TK (10 ng/μl), 100 μl of PPARgamma expression plasmid pcDNA3-GAL4-humanPPARgammaLBD (100 ng/μl) and 78 μl of plasmid pBluescript SK(+) (500 ng/μl). […]

Row | Structure (SMILES) | EC50
1 | COc1ccc(-c2nc(COc3ccc(S(=O)(=O)Nc4nnc(C(C)C)s4)cc3)no2)cc1 [Example 9, N-(5-Isopropyl-[1,3,4]thiadiazol-2-yl)-4-[5-(4-methoxy-phenyl)-[1,2,4]oxadiazol-3-ylmethoxy]-benzenesulfonamide] | 0.05 µM
2 | Cc1nc(-c2ccc(C(F)(F)F)cc2)sc1COc1ccc(S(=O)(=O)Nc2nnc(C(C)C)s2)cc1 [Example 1, N-(5-Isopropyl-[1,3,4]thiadiazol-2-yl)-4-[4-methyl-2-(4-trifluoromethyl-phenyl)-thiazol-5-ylmethoxy]-benzenesulfonamide] | 0.05 µM
3 | CC(C)c1nnc(NS(=O)(=O)c2ccc(OCc3ccc(Oc4ccc(C(F)(F)F)cc4)cc3)cc2)s1 [Example 4, N-(5-Isopropyl-[1,3,4]thiadiazol-2-yl)-4-[4-(4-trifluoromethyl-phenoxy)-benzyloxy]-benzenesulfonamide] | 0.46 µM

Continued by falling EC50, values first:

Row | EC50 | Structure (SMILES)
4 | 1.97 µM | COc1ccc(-c2nc(COc3ccc(S(=O)(=O)Nc4nnc(C(C)C)s4)cc3)co2)cc1 [Example 13, N-(5-Isopropyl-[1,3,4]thiadiazol-2-yl)-4-[2-(4-methoxy-phenyl)-oxazol-4-ylmethoxy]-benzenesulfonamide]
5 | 0.46 µM | COc1ccc2c(COc3ccc(S(=O)(=O)Nc4nnc(C(C)C)s4)cc3)coc2c1 [Example 3, N-(5-Isopropyl-[1,3,4]thiadiazol-2-yl)-4-(6-methoxy-benzofuran-3-ylmethoxy)-benzenesulfonamide]
6 | 0.001 µM | CCc1oc(-c2cccc(C(F)(F)F)c2)nc1COc1ccc(S(=O)(=O)Nc2nnc(C(C)C)s2)cc1 [Example 14, 4-[5-Ethyl-2-(3-trifluoromethyl-phenyl)-oxazol-4-ylmethoxy]-N-(5-isopropyl-[1,3,4]thiadiazol-2-yl)-benzenesulfonamide]
